Results on 13 molecules are retold here after US20260022142A1, “MACROCYCLIC IMMUNOMODULATORS” (Bristol-Myers Squibb Company, priority 2022, published 2026).

Structures are written as SMILES. Bridge positions count the residues as written; N and C are the ends. Square brackets hold non-standard residues; d marks the D form. Peptide text beside a SMILES is read from it. * marks the point of attachment. Bip = N[C@@H](Cc1ccc(-c2ccccc2)cc1)C(=O)O; Phe(3-Me) = Cc1cccc(C[C@H](N)C(=O)O)c1; Cha = N[C@@H](CC1CCCCC1)C(=O)O; Cit = NC(=O)NCCC[C@H](N)C(=O)O; Carboxymethyl = O=C(O)C*; Orn = NCCC[C@H](N)C(=O)O; Aun = NCCCCCCCCCCC(=O)O; Dab = NCC[C@H](N)C(=O)O; Dap = NC[C@H](N)C(=O)O

The target of this experiment is T1, PD-1/PD-L1 interaction (PE-labeled human PD-L1-Ig binding to Jurkat cell line over-expressing human PD-1) (Homo sapiens, UniProt Q15116).
T1 construct: expressed in transfected cells; host or cells: Jurkat
T1 sequence (Q15116 25-288): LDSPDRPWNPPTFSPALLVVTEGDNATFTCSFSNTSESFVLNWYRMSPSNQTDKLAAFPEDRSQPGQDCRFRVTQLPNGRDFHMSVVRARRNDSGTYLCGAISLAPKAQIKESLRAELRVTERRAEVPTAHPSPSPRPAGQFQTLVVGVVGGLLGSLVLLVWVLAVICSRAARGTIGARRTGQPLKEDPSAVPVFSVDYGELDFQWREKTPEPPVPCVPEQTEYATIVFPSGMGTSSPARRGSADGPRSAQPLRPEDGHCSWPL
The experiment is described as follows: Jurkat-PD-1 Cell Binding High-Content Screening Assay (CBA). It counts as cell-based. As to conditions: Jurkat cell line over-expressing human PD-1; PE-labeled PD-L1-Ig 20 nM final; read-out: Jurkat hPD1-PDL1 IC50. In short, it runs like this:
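Jurkat cells stably over-expressing human PD-1 were seeded in DMEM with 10% fetal calf serum and pre-incubated with compound for 2 h at 37° C. PE-labeled human PD-L1-Ig was then added at 20 nM final for 1 hour, after which cells were fixed with paraformaldehyde, Hoechst-stained and imaged by high-content microscopy.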
`Cc1cccc(C[C@@H]2NC(=O)[C@H](CC(=O)O)NC(=O)[C@H](Cc3ccc(OCC(=O)O)cc3)NC(=O)[C@H](CN)NC(=O)CSC[C@@H](C(=O)N[C@@H](C)C(=O)N[C@@H](CCCN)C(=O)NCC(=O)NCCCCCCCCCCC(=O)O)NC(=O)[C@H]([C@@H](C)O)NC(=O)[C@H](C(C)C)NC(=O)[C@H](CC3CCCCC3)NC(=O)[C@H](CCN)NC(=O)[C@@H](CC(C)C)NC(=O)[C@H](CCCN)NC(=O)[C@H](CCCNC(N)=O)NC(=O)[C@H](Cc3ccc(-c4ccccc4)cc3)NC(=O)[C@H](C(C)C)NC2=O)c1` [Compound 1068] ({CH2CO}-[Dap]Y(Carboxymethyl)D[Phe(3-Me)]V[Bip][Cit][Orn][dL][Dab][Cha]VTCA[Orn]G[Aun]-OH; thioether N-14): the IC50 was 10.4 nM.

Take `Cc1cccc(C[C@@H]2NC(=O)[C@H](CC(=O)O)NC(=O)[C@H](Cc3ccc(OCC(=O)O)cc3)NC(=O)[C@H](Cc3ccc(OCC(=O)O)cc3)NC(=O)CSC[C@@H](C(=O)NCC(=O)N[C@@H](CCCCN)C(=O)NCCCCCCCCCCC(=O)O)NC(=O)[C@H](CO)NC(=O)[C@H](C(C)C)NC(=O)[C@H](CC3CCCCC3)NC(=O)[C@H](CCN)NC(=O)[C@@H](CC(C)C)NC(=O)[C@H](CCCN)NC(=O)[C@H](C(C)C)NC(=O)[C@H](Cc3ccc(-c4ccccc4)cc3)NC(=O)[C@H](CC(C)C)NC2=O)c1` [Compound 1069] ({CH2CO}-Y(Carboxymethyl)Y(Carboxymethyl)D[Phe(3-Me)]L[Bip]V[Orn][dL][Dab][Cha]VSCGK[Aun]-OH; thioether N-14): the concentration for half-maximal inhibition (IC50) is 41.7 nM.

`Cc1cccc(C[C@@H]2NC(=O)[C@H](CC(=O)O)NC(=O)[C@H](Cc3ccc(OCC(=O)O)cc3)NC(=O)[C@H](CN)NC(=O)CSC[C@@H](C(=O)N[C@@H](C)C(=O)N[C@@H](CCCCN)C(=O)NCCCCCCCCCCC(=O)O)NC(=O)[C@H]([C@@H](C)O)NC(=O)[C@H](C(C)C)NC(=O)[C@H](CC3CCCCC3)NC(=O)[C@H](CCN)NC(=O)[C@@H](CC(C)C)NC(=O)[C@H](CCCN)NC(=O)[C@H](CCCNC(N)=O)NC(=O)[C@H](Cc3ccc(-c4ccccc4)cc3)NC(=O)[C@H](C(C)C)NC2=O)c1` [Compound 1070] ({CH2CO}-[Dap]Y(Carboxymethyl)D[Phe(3-Me)]V[Bip][Cit][Orn][dL][Dab][Cha]VTCAK[Aun]-OH; thioether N-14): the IC50 turned out to be 10.4 nM.

Regarding `Cc1cccc(C[C@@H]2NC(=O)[C@H](CC(=O)O)NC(=O)[C@H](Cc3ccc(OCC(=O)O)cc3)NC(=O)[C@H](Cc3ccc(OCC(=O)O)cc3)NC(=O)CSC[C@@H](C(=O)NCC(=O)N[C@@H](CCCN)C(=O)NCCCCCCCCCCC(=O)O)NC(=O)[C@H](CO)NC(=O)[C@H](C(C)C)NC(=O)[C@H](CC3CCCCC3)NC(=O)[C@H](CCN)NC(=O)[C@@H](CC(C)C)NC(=O)[C@H](CCCN)NC(=O)[C@H](C(C)C)NC(=O)[C@H](Cc3ccc(-c4ccccc4)cc3)NC(=O)[C@H](CC(C)C)NC2=O)c1` [Compound 1071] ({CH2CO}-Y(Carboxymethyl)Y(Carboxymethyl)D[Phe(3-Me)]L[Bip]V[Orn][dL][Dab][Cha]VSCG[Orn][Aun]-OH; thioether N-14), the IC50 is 42.5 nM.

As for `Cc1cccc(C[C@@H]2NC(=O)[C@H](CC(=O)O)NC(=O)[C@H](Cc3ccc(OCC(=O)O)cc3)NC(=O)[C@H](CN)NC(=O)CSC[C@@H](C(=O)N[C@@H](C)C(=O)N[C@@H](CCCN)C(=O)NCCCCCCCCCCC(=O)O)NC(=O)[C@H]([C@@H](C)O)NC(=O)[C@H](C(C)C)NC(=O)[C@H](CC3CCCCC3)NC(=O)[C@H](CCN)NC(=O)[C@@H](CC(C)C)NC(=O)[C@H](CCCN)NC(=O)[C@H](CCCNC(N)=O)NC(=O)[C@H](Cc3ccc(-c4ccccc4)cc3)NC(=O)[C@H](C(C)C)NC2=O)c1` [Compound 1072] ({CH2CO}-[Dap]Y(Carboxymethyl)D[Phe(3-Me)]V[Bip][Cit][Orn][dL][Dab][Cha]VTCA[Orn][Aun]-OH; thioether N-14), the IC50 came to 14.2 nM.

On to `Cc1cccc(C[C@@H]2NC(=O)[C@H](CC(=O)O)NC(=O)[C@H](Cc3ccc(OCC(=O)O)cc3)NC(=O)[C@H](Cc3ccc(OCC(=O)O)cc3)NC(=O)CSC[C@@H](C(=O)NCC(=O)N[C@@H](CCCCN)C(=O)NCC(=O)NCCCCCCCCCCC(=O)O)NC(=O)[C@H](CO)NC(=O)[C@H](C(C)C)NC(=O)[C@H](CC3CCCCC3)NC(=O)[C@H](CCN)NC(=O)[C@@H](CC(C)C)NC(=O)[C@H](CCCN)NC(=O)[C@H](C(C)C)NC(=O)[C@H](Cc3ccc(-c4ccccc4)cc3)NC(=O)[C@H](CC(C)C)NC2=O)c1` [Compound 1073] ({CH2CO}-Y(Carboxymethyl)Y(Carboxymethyl)D[Phe(3-Me)]L[Bip]V[Orn][dL][Dab][Cha]VSCGKG[Aun]-OH; thioether N-14), for which the IC50 was 15.2 nM.

For the molecule `CC(C)C[C@H]1NC(=O)[C@H](CCCN)NC(=O)[C@H](C(C)C)NC(=O)[C@H](Cc2ccc(-c3ccccc3)cc2)NC(=O)[C@H](C(C)C)NC(=O)[C@H](Cc2c[nH]c3ccccc23)NC(=O)[C@H](CC(=O)O)NC(=O)[C@H](Cc2ccc(OCC(=O)O)cc2)NC(=O)[C@H](CN)NC(=O)CSC[C@@H](C(=O)N[C@@H](CN)C(=O)NCCCCCCCCCCC(=O)O)NC(=O)[C@H]([C@@H](C)O)NC(=O)[C@H](C(C)C)NC(=O)[C@H](CC2CCCCC2)NC(=O)[C@H](Cc2c[nH]cn2)NC1=O` [Compound 1074] ({CH2CO}-[Dap]Y(Carboxymethyl)DWV[Bip]V[Orn][dL]H[Cha]VTC[Dap][Aun]-OH; thioether N-14), the IC50 was determined as 69.5 nM.

`CC(C)C[C@H]1NC(=O)[C@H](CCCN)NC(=O)[C@H](C(C)C)NC(=O)[C@H](Cc2ccc(-c3ccccc3)cc2)NC(=O)[C@H](C(C)C)NC(=O)[C@H](Cc2c[nH]c3ccccc23)NC(=O)[C@H](CC(=O)O)NC(=O)[C@H](Cc2ccc(OCC(=O)O)cc2)NC(=O)[C@H](CN)NC(=O)CSC[C@@H](C(=O)N[C@@H](CCN)C(=O)NCCCCCCCCCCC(=O)O)NC(=O)[C@H]([C@@H](C)O)NC(=O)[C@H](C(C)C)NC(=O)[C@H](CC2CCCCC2)NC(=O)[C@H](Cc2c[nH]cn2)NC1=O` [Compound 1075] ({CH2CO}-[Dap]Y(Carboxymethyl)DWV[Bip]V[Orn][dL]H[Cha]VTC[Dab][Aun]-OH; thioether N-14): the IC50 was 34.6 nM.

As for `CC(C)C[C@H]1NC(=O)[C@H](CCCN)NC(=O)[C@H](C(C)C)NC(=O)[C@H](Cc2ccc(-c3ccccc3)cc2)NC(=O)[C@H](C(C)C)NC(=O)[C@H](Cc2c[nH]c3ccccc23)NC(=O)[C@H](CC(=O)O)NC(=O)[C@H](Cc2ccc(OCC(=O)O)cc2)NC(=O)[C@H](CN)NC(=O)CSC[C@@H](C(=O)N[C@@H](CCCN)C(=O)NCCCCCCCCCCC(=O)O)NC(=O)[C@H]([C@@H](C)O)NC(=O)[C@H](C(C)C)NC(=O)[C@H](CC2CCCCC2)NC(=O)[C@H](Cc2c[nH]cn2)NC1=O` [Compound 1076] ({CH2CO}-[Dap]Y(Carboxymethyl)DWV[Bip]V[Orn][dL]H[Cha]VTC[Orn][Aun]-OH; thioether N-14), the IC50 was 44.1 nM.

Regarding `CC(C)C[C@H]1NC(=O)[C@H](CCCN)NC(=O)[C@H](C(C)C)NC(=O)[C@H](Cc2ccc(-c3ccccc3)cc2)NC(=O)[C@H](C(C)C)NC(=O)[C@H](Cc2c[nH]c3ccccc23)NC(=O)[C@H](CC(=O)O)NC(=O)[C@H](Cc2ccc(OCC(=O)O)cc2)NC(=O)[C@H](CN)NC(=O)CSC[C@@H](C(=O)N[C@@H](CCCCN)C(=O)NCCCCCCCCCCC(=O)O)NC(=O)[C@H]([C@@H](C)O)NC(=O)[C@H](C(C)C)NC(=O)[C@H](CC2CCCCC2)NC(=O)[C@H](Cc2c[nH]cn2)NC1=O` [Compound 1077] ({CH2CO}-[Dap]Y(Carboxymethyl)DWV[Bip]V[Orn][dL]H[Cha]VTCK[Aun]-OH; thioether N-14), the IC50 stood at 46.7 nM.

Turning to `CC(C)C[C@H]1NC(=O)[C@H](CCCN)NC(=O)[C@H](C(C)C)NC(=O)[C@H](Cc2ccc(-c3ccccc3)cc2)NC(=O)[C@H](C(C)C)NC(=O)[C@H](Cc2c[nH]c3ccccc23)NC(=O)[C@H](CC(=O)O)NC(=O)[C@H](Cc2ccc(OCC(=O)O)cc2)NC(=O)[C@H](CN)NC(=O)CSC[C@@H](C(=O)N[C@@H](CC(=O)O)C(=O)NCCCCCCCCCCC(=O)O)NC(=O)[C@H]([C@@H](C)O)NC(=O)[C@H](C(C)C)NC(=O)[C@H](CC2CCCCC2)NC(=O)[C@H](Cc2c[nH]cn2)NC1=O` [Compound 1078] ({CH2CO}-[Dap]Y(Carboxymethyl)DWV[Bip]V[Orn][dL]H[Cha]VTCD[Aun]-OH; thioether N-14), the IC50 was found to be 84.9 nM.

Consider `CC(C)C[C@H]1NC(=O)[C@H](CCCN)NC(=O)[C@H](C(C)C)NC(=O)[C@H](Cc2ccc(-c3ccccc3)cc2)NC(=O)[C@H](C(C)C)NC(=O)[C@H](Cc2c[nH]c3ccccc23)NC(=O)[C@H](CC(=O)O)NC(=O)[C@H](Cc2ccc(OCC(=O)O)cc2)NC(=O)[C@H](CN)NC(=O)CSC[C@@H](C(=O)N[C@@H](CCC(=O)O)C(=O)NCCCCCCCCCCC(=O)O)NC(=O)[C@H]([C@@H](C)O)NC(=O)[C@H](C(C)C)NC(=O)[C@H](CC2CCCCC2)NC(=O)[C@H](Cc2c[nH]cn2)NC1=O` [Compound 1079] ({CH2CO}-[Dap]Y(Carboxymethyl)DWV[Bip]V[Orn][dL]H[Cha]VTCE[Aun]-OH; thioether N-14), for which the IC50 worked out at 55.6 nM.

For the molecule `CC(C)C[C@H]1NC(=O)[C@H](CCCN)NC(=O)[C@H](C(C)C)NC(=O)[C@H](Cc2ccc(-c3ccccc3)cc2)NC(=O)[C@H](C(C)C)NC(=O)[C@H](Cc2c[nH]c3ccccc23)NC(=O)[C@H](CC(=O)O)NC(=O)[C@H](Cc2ccc(OCC(=O)O)cc2)NC(=O)[C@H](CN)NC(=O)CSC[C@@H](C(=O)N[C@@H](C)C(=O)N[C@@H](CCC(=O)O)C(=O)NCCCCCCCCCCC(=O)O)NC(=O)[C@H]([C@@H](C)O)NC(=O)[C@H](C(C)C)NC(=O)[C@H](CC2CCCCC2)NC(=O)[C@H](Cc2cnc[nH]2)NC1=O` [Compound 1080] ({CH2CO}-[Dap]Y(Carboxymethyl)DWV[Bip]V[Orn][dL]H[Cha]VTCAE[Aun]-OH; thioether N-14), the IC50 stood at 35.7 nM.

For orientation: IC50 means the concentration that inhibits the measured activity by half.
